Laboratory results taken from US20160199524A1, “RADIOSENSITIVITY OF FLUOROPHORES AND USE OF RADIOPROTECTIVE AGENTS FOR DUAL-MODALITY IMAGING” (Immunomedics, Inc., priority 2015, published 2016).

What was measured:
[1] = Stability of Al^18F(IMP485)/IMP487 in human serum at 37° C.; type: in vitro ADME; settings: four hours
Method: A kit containing 40 nmol of IMP485 or IMP487, 20 nmol AlCl3, 0.1 mg ascorbic acid and 0.1 g trehalose adjusted to pH 3.9 was reconstituted with purified ^18F^− in 200 μL saline and heated 106° C. for 15 min. The reaction mixture was then diluted with 800 μL water and placed on an HLB column. […] The radiolabeled peptide in […] was mixed with 250 μL of fresh human serum in a vial and incubated at 37° C.
The purified radiolabeled peptide in 50 μL 1:1 EtOH/H2O was mixed with 150 μL of human serum and placed in the HPLC autosampler heated to 37° C. and analyzed by RP-HPLC.

[2] = Biodistribution of Al^18F(IMP485) alone or TF2 pretargeted; settings: mouse, in vivo, iv
Method: Mice were necropsied at 1 and 3 h post injection, 7 mice per time point.
Biodistribution studies were performed in Taconic nude mice bearing subcutaneous LS174T tumor xenografts.
Mice were necropsied at 1 and 3 h post injection, 6 mice per time point.

[3] = Taconic nude, % ID/org Lg. Int.
[4] = Taconic nude, % ID/org Sm. Int.
[5] = nude (Taconic), 28 uCi, total radioactivity, % ID/g Lung

With `NC(=O)[C@@H](CCCCNC(=O)CNC(=O)CCC(=O)NCCc1c[nH]cn1)NC(=O)[C@@H](Cc1ccc(O)cc1)NC(=O)[C@@H](CCCCNC(=O)CNC(=O)CCC(=O)NCCc1c[nH]cn1)NC(=O)Cc1ccc(CN2CCN(CC(=O)O)CCN(CC(=O)O)CC2)cc1` [Al^18F(IMP485)] the “stability in human serum” value [1] was “stable”, the tissue uptake at 3 h ([2]; Taconic nude) was 0.353 %ID/g and the tissue uptake at 3 h ([2]; Taconic nude, % ID/g Blood) was 0.023 %ID/g. The tissue uptake at 1 h ([2]; Taconic nude, % ID/g Kidney) was 3.19 %ID/g, the tissue uptake at 1 h ([2]; Taconic nude, % ID/g Lg. Int.) was 0.104 %ID/g and the tissue uptake at 3 h ([2]; Taconic nude, % ID/g Lg. Int.) was 0.35 ± 0.16 %ID/g. The tissue uptake at 1 h ([2]; Taconic nude, % ID/g Liver) was 0.237 %ID/g, the tissue uptake at 3 h ([2]; Taconic nude, % ID/g Lung) was 0.244 %ID/g and the tissue uptake at 1 h ([2]; Taconic nude, % ID/g Muscle) was 0.136 %ID/g. The tissue uptake at 3 h ([2]; Taconic nude, % ID/g Muscle) was 0.025 %ID/g, the tissue uptake at 1 h ([2]; Taconic nude, % ID/g Scapula) was 0.5 %ID/g and the tissue uptake at 3 h ([2]; Taconic nude, % ID/g Sm. Int.) was 0.071 %ID/g. For the same compound, the tissue uptake at 1 h ([2]; Taconic nude, % ID/g Spleen) was 0.254 %ID/g, the tissue uptake at 3 h ([2]; Taconic nude, % ID/g Stomach) was 0.025 %ID/g and the tissue uptake at 1 h ([2]; Taconic nude, % ID/g Tumor) was 28.1 %ID/g. It also gave a tissue uptake dose at 3 h ([2]; Taconic nude, % ID/org Blood) of 0.037 %ID, a tissue uptake dose at 1 h ([2]; Taconic nude, % ID/org Kidney) of 0.444 %ID and a tissue uptake dose at 1 h [2, 3] of 0.055 %ID. The tissue uptake dose at 3 h [2, 3] was 0.206 %ID, the tissue uptake dose at 1 h ([2]; Taconic nude, % ID/org Liver) was 0.295 %ID and the tissue uptake dose at 3 h ([2]; Taconic nude, % ID/org Lung) was 0.035 %ID. The tissue uptake dose at 1 h ([2]; Taconic nude, % ID/org Muscle) was 0.012 %ID, the tissue uptake dose at 3 h ([2]; Taconic nude, % ID/org Muscle) was 0.002 %ID and the tissue uptake dose at 1 h ([2]; Taconic nude, % ID/org Scapula) was 0.095 %ID. The tissue uptake dose at 1 h [2, 4] was 0.586 %ID, the tissue uptake dose at 3 h [2, 4] was 0.059 %ID and the tissue uptake dose at 1 h ([2]; Taconic nude, % ID/org Spleen) was 0.02 %ID. The tissue uptake dose at 3 h ([2]; Taconic nude, % ID/org Stomach) was 0.01 %ID, the tissue uptake dose at 1 h ([2]; Taconic nude, % ID/org Tumor) was 8.03 %ID and the tissue uptake at 1 h ([2]; nude (Taconic), 28 uCi, total radioactivity) was 0.114 %ID/g. The tissue uptake at 1 h ([2]; nude (Taconic), 28 uCi, total radioactivity, % ID/g Blood) was 0.165 %ID/g, the tissue uptake at 1 h ([2]; nude (Taconic), 28 uCi, total radioactivity, % ID/g Lg. Int.) was 0.081 %ID/g and the tissue uptake at 1 h ([2]; nude (Taconic), 28 uCi, total radioactivity, % ID/g Liver) was 0.176 %ID/g. It also gave a tissue uptake at 1 h [2, 5] of 0.238 %ID/g, a tissue uptake at 3 h [2, 5] of 0.073 %ID/g and a tissue uptake at 1 h ([2]; nude (Taconic), 28 uCi, total radioactivity, % ID/g Scapula, alone, 1 h post injection) of 0.107 %ID/g. For the same compound, the tissue uptake at 1 h ([2]; nude (Taconic), 28 uCi, total radioactivity, % ID/g Sm. Int., alone, 1 h post injection) was 0.396 %ID/g, the tissue uptake at 1 h ([2]; nude (Taconic), 28 uCi, total radioactivity, % ID/g Spleen, alone, 1 h post injection) was 0.21 %ID/g and the tissue uptake at 1 h ([2]; nude (Taconic), 28 uCi, total radioactivity, % ID/g Stomach, alone, 1 h post injection) was 0.126 %ID/g. It also gave a tissue uptake at 1 h ([2]; nude (Taconic), 28 uCi, total radioactivity, % ID/g Tumor, alone, 1 h post injection) of 0.316 %ID/g, a tissue uptake dose at 1 h ([2]; nude (Taconic), 28 uCi, total radioactivity, % ID/org Blood, alone, 1 h post injection) of 0.268 %ID and a tissue uptake dose at 1 h ([2]; nude (Taconic), 28 uCi, total radioactivity, % ID/org Kidney, alone, 1 h post injection) of 0.499 %ID. The tissue uptake dose at 1 h ([2]; nude (Taconic), 28 uCi, total radioactivity, % ID/org Lg. Int., alone, 1 h post injection) was 0.041 %ID, the tissue uptake dose at 1 h ([2]; nude (Taconic), 28 uCi, total radioactivity, % ID/org Liver, alone, 1 h post injection) was 0.22 %ID and the tissue uptake dose at 1 h ([2]; nude (Taconic), 28 uCi, total radioactivity, % ID/org Lung, alone, 1 h post injection) was 0.033 %ID. For the same compound, the tissue uptake dose at 1 h ([2]; nude (Taconic), 28 uCi, total radioactivity, % ID/org Scapula, alone, 1 h post injection) was 0.006 %ID, the tissue uptake dose at 1 h ([2]; nude (Taconic), 28 uCi, total radioactivity, % ID/org Sm. Int., alone, 1 h post injection) was 0.353 %ID and the tissue uptake dose at 1 h ([2]; nude (Taconic), 28 uCi, total radioactivity, % ID/org Spleen, alone, 1 h post injection) was 0.018 %ID. It also gave a tissue uptake dose at 1 h ([2]; nude (Taconic), 28 uCi, total radioactivity, % ID/org Stomach, alone, 1 h post injection) of 0.057 %ID, a tissue uptake dose at 1 h ([2]; nude (Taconic), 28 uCi, total radioactivity, % ID/org Tumor, alone, 1 h post injection) of 0.081 %ID and a tissue uptake at 3 h ([2]; nude (Taconic), total radioactivity, % ID/g Kidney) of 2.22 %ID/g. For the same compound, the tissue uptake at 3 h ([2]; nude (Taconic), total radioactivity, % ID/g Liver) was 0.142 %ID/g, the tissue uptake at 3 h ([2]; nude (Taconic), total radioactivity, % ID/g Scapula) was 0.058 %ID/g and the tissue uptake at 3 h ([2]; nude (Taconic), total radioactivity, % ID/g Spleen) was 0.138 %ID/g. For the same compound, the tissue uptake dose at 3 h ([2]; nude (Taconic), total radioactivity, % ID/org Kidney) was 0.319 %ID, the tissue uptake dose at 3 h ([2]; nude (Taconic), total radioactivity, % ID/org Liver) was 0.178 %ID and the tissue uptake dose at 3 h ([2]; nude (Taconic), total radioactivity, % ID/org Scapula) was 0.008 %ID. The tissue uptake dose at 3 h ([2]; nude (Taconic), total radioactivity, % ID/org Spleen) was 0.011 %ID, the tissue uptake dose at 3 h ([2]; nude (Taconic), total radioactivity, % ID/org Tumor) was 8.13 %ID and the tissue uptake at 3 h ([2]; nude, 28 uCi, total radioactivity, % ID/g Lg. Int.) was 0.713 %ID/g. For the same compound, the tissue uptake at 3 h ([2]; nude, 28 uCi, total radioactivity, % ID/g Liver) was 0.095 %ID/g, the tissue uptake at 3 h ([2]; nude, 28 uCi, total radioactivity, % ID/g Muscle) was 0.013 %ID/g and the tissue uptake at 3 h ([2]; nude, 28 uCi, total radioactivity, % ID/g Sm. Int., alone, 3 h post injection) was 0.137 %ID/g.
